According to patent publication US10774071B2, “PD-1/PD-L1 inhibitors” (Gilead Sciences, Inc., priority 2018, dated 2020):
Read-outs that look alike come from different tables or passages of the source.

Key:
[1] = target: PD-1/PD-L1 (Homo sapiens (Human), UniProt Q9NZQ7); assay: PD-1/PD-L1 biochemical protein-protein interaction assay (ALPHA); format: binding; conditions: read-out: IC50 PD-L1-PD1
Protocol: Compounds were tested in biochemical protein-protein interaction assays to determine if they can specifically block the interaction between the extracellular domains of PD-1/PD-L1 or CTLA/CD80. Binding of the protein pairs is measured using a bead based Amplified Luminescent Proximity Homogeneous Assay (ALPHA) platform. […] Final protein concentration in the assays were 0.3 nM (His tagged PD-L1), 2.5 nM (biotinylated Fc-PD-1), 1 nM (His tagged CTLA4) and 1 nM (biotinylated CD80).

[2] = target: PD-L1 (Homo sapiens (Human), UniProt Q9NZQ7); assay: PD-L1/PD-L1 dimerization biochemical protein-protein interaction assay (ALPHA); format: binding; conditions: read-out: AC50 PDL1 Dimer 1 nM
Sequence of PD-L1 (Q9NZQ7 19-238): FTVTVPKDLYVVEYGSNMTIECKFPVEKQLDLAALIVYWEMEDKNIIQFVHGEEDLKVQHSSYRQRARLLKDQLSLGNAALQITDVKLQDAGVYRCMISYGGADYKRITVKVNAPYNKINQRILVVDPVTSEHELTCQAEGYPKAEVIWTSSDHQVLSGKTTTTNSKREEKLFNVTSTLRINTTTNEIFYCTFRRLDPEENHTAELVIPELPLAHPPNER
Sequence of PD-L1 (Q9NZQ7 19-238): as above

[3] = 0.3 nM His tagged PD-L1, 2.5 nM biotinylated Fc-PD-1, Table 3B
[4] = 0.5 nM His tagged PD-L1 and 0.5 nM FLAG tagged PD-L1, Table 4B
[5] = 0.3 nM His tagged PD-L1, 2.5 nM biotinylated Fc-PD-1, readings of 0.064 nM are equal to or less than 0.064 nM
[6] = 0.5 nM His tagged PD-L1 and 0.5 nM FLAG tagged PD-L1, Table 4A

Sequence of PD-1/PD-L1 (Q9NZQ7 19-238): as above

Row | Structure (SMILES) | IC50 [1, 3] [nM] | AC50 [2, 4] [nM] | IC50 [1, 5] [nM] | AC50 [2, 6] [nM]
1 | COc1nc(-c2cccc(-c3cccc4c3CC[C@@H]4Nc3nc(OC)c(CN4C5CCC4(C(=O)O)CC5)cc3C(F)(F)F)c2Cl)ccc1CN1CC(C)(O)C1 [A-60] |  |  | ≤ 0.064 | 13.9
2 | COc1nc(-c2cccc(-c3cccc4c3CC[C@@H]4Nc3nc(OC)c(CN4CC(C(=O)O)C4)cc3C(F)(F)F)c2Cl)ccc1CNC[C@@H]1CCC(=O)N1 [A-55] |  |  | ≤ 0.064 | 13.2
3 | COc1nc(-c2cccc(-c3cccc4c3CC[C@@H]4Nc3nc(OC)c(CN4C[C@H](C)C[C@H]4C(=O)O)cc3C(F)(F)F)c2Cl)ccc1CNC[C@@H]1CCC(=O)N1 [A-78] |  |  | ≤ 0.064 | 13.5
4 | COC(=O)[C@H](C)NCc1nc(C(F)(F)F)c(N[C@H]2CCc3c(-c4cccc(-c5ccc(CNC[C@@H]6CCC(=O)N6)c(OC)n5)c4Cl)cccc32)nc1OC [A-99] |  |  | 0.397 | 110
5 | CC[C@H](NCc1nc(C(F)(F)F)c(N[C@H]2CCc3c(-c4cccc(-c5ccc(CNC[C@@H]6CCC(=O)N6)c(OC)n5)c4Cl)cccc32)nc1OC)C(=O)O [A-104] |  |  | ≤ 0.064 | 16.6
6 | COc1nc(-c2cccc(-c3cccc4c3CC[C@@H]4Nc3nc(OC)c(CN4CC[C@@H](C(=O)O)C4)cc3C(F)(F)F)c2Cl)ccc1CNC[C@@H]1CCC(=O)N1 [A-4] |  |  | ≤ 0.064 | 14.3
7 | COC[C@H](NCc1nc(C(F)(F)F)c(N[C@H]2CCc3c(-c4cccc(-c5ccc(CNC[C@@H]6CCC(=O)N6)c(OC)n5)c4Cl)cccc32)nc1OC)C(=O)O [A-100] |  |  | ≤ 0.064 | 7.11
8 | COc1nc(-c2cccc(-c3cccc4c3CC[C@@H]4Nc3nc(OC)c(CN(C)[C@@H](C)C(=O)O)nc3C(F)(F)F)c2Cl)ccc1CNC[C@@H]1CCC(=O)N1 [A-96] |  |  | ≤ 0.064 | 3.97
9 | COc1nc(-c2cccc(-c3cccc4c3CC[C@@H]4Nc3nc(OC)c(CN[C@H](C(=O)O)C4CC4)nc3C(F)(F)F)c2Cl)ccc1CN[C@H]1C[C@](C)(O)C1 [A-94] |  |  | ≤ 0.064 | 20.7
10 | COc1nc(-c2cccc(-c3cccc4c3CC[C@@H]4Nc3nc(OC)c(CN4CCC5CC4(C(=O)O)C5)cc3C(F)(F)F)c2Cl)ccc1CN1CC(C)(O)C1 [A-56] |  |  | ≤ 0.064 | 11.8
11 | COc1nc(-c2cccc(-c3cccc4c3CC[C@@H]4Nc3nc(OC)c(CN4CC5(CCC(=O)N5)C4)cc3Cl)c2Cl)ccc1CNC[C@@H]1CCC(=O)N1 [A-7] |  |  | 1.18 | 180
12 | COc1nc(-c2cccc(-c3cccc4c3CC[C@@H]4Nc3nc(OC)c(CN[C@@H](C)C(=O)N(C)C)nc3C(F)(F)F)c2Cl)ccc1CNC[C@@H]1CCC(=O)N1 [A-97] |  |  | ≤ 0.064 | 6.28
13 | COc1nc(-c2cccc(-c3cccc4c3CC[C@@H]4Oc3nc(OC)c(CN4C5CCC4(C(=O)O)CC5)cc3C(F)(F)F)c2Cl)ccc1CN1CC2(CCC(=O)N2)C1 [B-227] | 0.064 | 3.12 |  | 
14 | COc1nc(-c2cccc(-c3cccc4c3CC[C@@H]4Nc3nc(OC)c(CNC[C@@H]4CCC(=O)N4)cc3Cl)c2Cl)ccc1CNC[C@@H]1CCC(=O)N1 [A-9] |  |  | 1.66 | 150

Continued, values first:

Row | IC50 [1, 3] [nM] | AC50 [2, 4] [nM] | IC50 [1, 5] [nM] | AC50 [2, 6] [nM] | Structure (SMILES)
15 | 0.387 | 85 |  |  | CNC(=O)CCNCc1ccc(-c2cccc(-c3cccc4c3CC[C@@H]4Oc3nc(OC)c(CNCCC(=O)NC)cc3Cl)c2Cl)nc1OC [B-89]
16 | 0.235 | 109 |  |  | CNC(=O)C1CCN(Cc2cc(Cl)c(O[C@H]3CCc4c(-c5cccc(-c6ccc(CN7CC(C)(O)C7)c(OC)n6)c5Cl)cccc43)nc2OC)C1 (some centres unmarked) [B-86]
17 | 0.064 | 9.85 |  |  | COc1nc(O[C@H]2CCc3c(-c4cccc(-c5cc(F)c(CNC[C@@H]6CCC(=O)N6)c(OC)n5)c4Cl)cccc32)c(C(F)(F)F)cc1CNC1(C(=O)O)CC1 [B-189]
18 | 0.064 | 12.7 |  |  | COc1nc(-c2cccc(-c3cccc4c3CC[C@@H]4Oc3nc(OC)c(CN4CC(C(=O)O)C4)nc3Cl)c2Cl)ccc1CNC[C@@H]1CCC(=O)N1 [B-152]
19 | 0.064 | 23.7 |  |  | COc1nc(-c2cccc(-c3cccc4c3CC[C@@H]4Oc3nc(OC)c(CN(C)CC(=O)O)cc3C(F)(F)F)c2Cl)ccc1CN[C@H]1C[C@](C)(O)C1 [B-210]
20 | 0.064 | 55.6 |  |  | COc1nc(O[C@H]2CCc3c(-c4cccc(-c5cc(C)c(CN6CC(C)(O)C6)c(OC)n5)c4Cl)cccc32)c(Cl)cc1CN1CC[C@H](C(=O)O)C1 [B-60]
21 | 0.064 | 50.3 |  |  | COc1nc(-c2cccc(-c3cccc4c3CC[C@@H]4Oc3nc(OC)c(CN4CC[C@@H](C(=O)O)C4)cc3Cl)c2Cl)ccc1CN1CC(C)(O)C1 [B-85]
22 | 0.064 | 2.56 |  |  | COc1cc(O[C@H]2CCc3c(-c4cccc(-c5ccc(CNC[C@@H]6CCC(=O)N6)c(OC)n5)c4Cl)cccc32)c(C(F)(F)F)cc1CNC(C)(C)C(=O)O [B-219]
23 | 0.064 | 55 |  |  | COc1nc(-c2cccc(-c3cccc4c3CC[C@@H]4Oc3nc(OC)c(CN4C[C@@H]5CC[C@]5(C(=O)O)C4)cc3Cl)c2Cl)ccc1CNC[C@@H]1CCC(=O)N1 [B-93]
24 | 0.064 | 20.1 |  |  | COc1nc(-c2cccc(-c3cccc4c3CC[C@@H]4Oc3nc(OC4CC4)c(CN4CC[C@@H](C(=O)O)C4)cc3Cl)c2Cl)ccc1CNC[C@@H]1CCC(=O)N1 [B-200]
25 | 0.074 | 13.4 |  |  | COc1nc(-c2cccc(-c3cccc4c3CC[C@@H]4Oc3nc(OCC#N)c(CNC4(C(=O)O)CC4)cc3C(F)(F)F)c2Cl)ccc1CNC[C@@H]1CCC(=O)N1 [B-22]
26 | 0.064 | 3.35 |  |  | COc1nc(O[C@H]2CCc3c(-c4cccc(-c5ccc(CNC[C@@H]6CCC(=O)N6)c(OCC#N)n5)c4Cl)cccc32)c(C(F)(F)F)cc1CN1CC2(C(=O)O)CCC1CC2 [B-126]
27 | 0.064 | 3.64 |  |  | CCN(CC(=O)O)Cc1cc(C(F)(F)F)c(O[C@H]2CCc3c(-c4cccc(-c5cc(F)c(CNC[C@@H]6CCC(=O)N6)c(OC)c5)c4Cl)cccc32)nc1OC [B-179]
28 | 0.064 | 19.8 |  |  | COc1nc(-c2cccc(-c3cccc4c3CC[C@@H]4Oc3nc(OC)c(CN4CC5CC(C(=O)O)C4C5)cc3Cl)c2Cl)ccc1CNC[C@@H]1CCC(=O)N1 (some centres unmarked) [B-184]
29 | 0.068 | 103 |  |  | COC(=O)[C@H]1[C@@H]2CN(Cc3cc(Cl)c(O[C@H]4CCc5c(-c6cccc(-c7ccc(CNC[C@@H]8CCC(=O)N8)c(OC)n7)c6Cl)cccc54)nc3OC)C[C@@H]21 [B-94]
30 | 0.097 | 15.9 |  |  | COc1nc(-c2cccc(-c3cccc4c3CC[C@@H]4Oc3nc(OC)c(CNCC(=O)N(C)C)cc3C(F)(F)F)c2Cl)ccc1CNC[C@@H]1CCC(=O)N1 [B-248]
31 | 0.064 | 13.2 |  |  | COc1nc(-c2cccc(-c3cccc4c3CC[C@@H]4Oc3nc(OC)c(CN4CCC[C@]4(C)C(=O)O)cc3C(F)(F)F)c2Cl)ccc1CNC[C@@H]1CCC(=O)N1 [B-8]
32 | 0.234 | 58.5 |  |  | COc1nc(-c2cccc(-c3cccc4c3SC[C@@H]4Oc3nc(OC)c(CNC[C@@H]4CCC(=O)N4)cc3Cl)c2Cl)ccc1CNC[C@@H]1CCC(=O)N1 [B-103]
33 | 0.064 | 11.4 |  |  | COc1nc(-c2cccc(-c3cccc4c3CC[C@@H]4Oc3nc(OC)c(CNCCC(=O)O)cc3C(F)(F)F)c2Cl)ccc1CN[C@H]1C[C@](C)(O)C1 [B-254]
34 | 0.064 | 19.1 |  |  | COc1nc(-c2cccc(-c3cccc4c3CC[C@@H]4Oc3nc(OCc4cncc(Cl)c4)c(CN4CC[C@H](C(=O)O)C4)cc3Cl)c2Cl)ccc1CNC[C@@H]1CCC(=O)N1 [B-49]
35 | 0.064 | 5.4 |  |  | COc1nc(-c2cccc(-c3cccc4c3CC[C@@H]4Oc3nc(OC)c(CN4CC(C)(C(=O)O)C4)cc3Cl)c2Cl)ccc1CNC[C@@H]1CCC(=O)N1 [B-10]
36 | 0.351 | 178 |  |  | COc1nc(-c2cccc(-c3cccc4c3CC[C@@H]4Oc3nc4c(nc3Cl)c(CNC[C@@H]3CCC(=O)N3)nn4C)c2Cl)ccc1CNC[C@@H]1CCC(=O)N1 [B-147]
37 | 0.064 | 3.14 |  |  | COc1nc(-c2cccc(-c3cccc4c3CC[C@@H]4Oc3nc(OC)c(CNC4(C(=O)O)CCC4)cc3C(F)(F)F)c2Cl)ccc1CNC[C@@H]1CCC(=O)N1 [B-229]
38 | 0.064 | 33.8 |  |  | COc1nc(O[C@H]2CCc3c(-c4cccc(-c5cnc([C@H](C)NC[C@@H]6CCC(=O)N6)c(OC)n5)c4Cl)cccc32)c(Cl)cc1CN1CC[C@@H](C(=O)O)C1 [B-91]
39 | 0.111 | 18.7 |  |  | CNC(=O)CCNCc1cc(Cl)c(O[C@H]2CCc3c(-c4cccc(-c5ccc(CNC[C@@H]6CCC(=O)N6)c(OC)n5)c4Cl)cccc32)nc1OC [B-90]
40 | 0.064 | 19.4 |  |  | COc1nc(-c2cccc(-c3cccc4c3CC[C@@H]4Oc3nc(OC)c(CN4CC5(CC(C(=O)O)C5)C4)cc3Cl)c2Cl)ccc1CNC[C@@H]1CCC(=O)N1 [B-24]
41 | 0.195 | 1420 |  |  | COC(=O)[C@@H]1CCN(Cc2ncc(O[C@H]3CCc4c(-c5cccc(-c6ccc(CNC[C@@H]7CCC(=O)N7)c(OC)n6)c5Cl)cccc43)nc2OC)C1 [B-157]
42 | 0.064 | 8.42 |  |  | COc1nc(-c2cccc(-c3cccc4c3CC[C@@H]4Oc3nc(OC)c(CN[C@@H](C)C(=O)O)cc3C(F)(F)F)c2Cl)ccc1CN[C@H]1C[C@](C)(O)C1 [B-215]
43 | 0.064 | 15.3 |  |  | COc1nc(-c2cccc(-c3cccc4c3CC[C@@H]4Oc3nc(OC)c(CN4C[C@H]5C[C@@]5(C(=O)O)C4)cc3C(F)(F)F)c2Cl)ccc1CNC[C@@H]1CCC(=O)N1 [B-198]
